Key:
[1] = target: T1, ABCB1 (Homo sapiens, UniProt P08183); experiment: vanadate-sensitive ATPase stimulation in crude membranes; assay type: biochemical
[2] = target: T1, ABCB1

T1 sequence (P08183 whole entry): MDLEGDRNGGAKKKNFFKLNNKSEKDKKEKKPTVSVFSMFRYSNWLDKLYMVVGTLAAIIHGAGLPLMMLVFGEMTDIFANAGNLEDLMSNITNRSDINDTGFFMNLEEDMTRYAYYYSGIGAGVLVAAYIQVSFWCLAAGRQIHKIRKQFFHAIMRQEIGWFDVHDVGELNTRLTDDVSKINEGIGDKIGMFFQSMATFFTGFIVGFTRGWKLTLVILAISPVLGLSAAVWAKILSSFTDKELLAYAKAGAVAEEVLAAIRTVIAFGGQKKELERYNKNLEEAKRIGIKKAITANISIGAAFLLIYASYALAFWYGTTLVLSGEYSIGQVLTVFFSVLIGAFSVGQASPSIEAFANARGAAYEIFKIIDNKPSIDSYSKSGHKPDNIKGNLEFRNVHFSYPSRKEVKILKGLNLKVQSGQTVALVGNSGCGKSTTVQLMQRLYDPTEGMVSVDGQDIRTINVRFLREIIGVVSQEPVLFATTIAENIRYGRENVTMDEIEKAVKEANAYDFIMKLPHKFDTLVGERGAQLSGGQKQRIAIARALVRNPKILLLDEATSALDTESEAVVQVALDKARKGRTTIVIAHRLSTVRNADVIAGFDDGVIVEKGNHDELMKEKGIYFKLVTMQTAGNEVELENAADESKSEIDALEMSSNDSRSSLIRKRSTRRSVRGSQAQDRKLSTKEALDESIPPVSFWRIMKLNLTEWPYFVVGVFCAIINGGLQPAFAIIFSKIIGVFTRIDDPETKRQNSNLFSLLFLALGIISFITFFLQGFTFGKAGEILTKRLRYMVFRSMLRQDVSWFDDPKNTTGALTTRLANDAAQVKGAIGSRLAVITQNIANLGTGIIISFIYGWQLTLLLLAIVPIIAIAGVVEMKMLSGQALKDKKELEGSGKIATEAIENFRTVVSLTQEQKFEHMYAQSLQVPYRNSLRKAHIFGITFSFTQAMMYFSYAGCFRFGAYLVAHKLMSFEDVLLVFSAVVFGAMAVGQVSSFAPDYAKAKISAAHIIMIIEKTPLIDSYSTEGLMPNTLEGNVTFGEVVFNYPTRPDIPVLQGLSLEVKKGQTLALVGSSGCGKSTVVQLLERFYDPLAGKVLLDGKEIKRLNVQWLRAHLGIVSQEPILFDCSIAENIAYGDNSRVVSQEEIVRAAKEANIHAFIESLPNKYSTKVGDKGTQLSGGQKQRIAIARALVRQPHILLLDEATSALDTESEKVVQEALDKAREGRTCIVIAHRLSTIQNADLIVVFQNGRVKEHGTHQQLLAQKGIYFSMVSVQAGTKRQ

SMILES	EC50 [1] [nM]	radiolabelled efflux assay in KB-C2 vs KB-3-1 cells [2]
CC1(C)CNc2cc(NC(=O)c3cccnc3NCc3ccncc3)ccc21 [motesanib]	893	–
CC(=O)O[C@H]1C(=O)[C@@]2(C)[C@H]([C@H](OC(=O)c3ccccc3)[C@]3(O)C[C@H](OC(=O)[C@H](O)[C@@H](NC(=O)c4ccccc4)c4ccccc4)C(C)=C1C3(C)C)[C@]1(OC(C)=O)CO[C@@H]1C[C@@H]2O [paclitaxel]	–	significantly lower compared to that of parental KB-3-1 cells due to active transport of the [^3H]-paclitaxel by the ABCB1 transporter

— article PMC4133117 (Biochemical pharmacology, 2014)
